# In ChEMBL document CHEMBL1201862, “PubChem BioAssay data set” (2004):
#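 96-well plates; 48 h exposure; 5 concentrations. Endpoints by linear interpolation between flanking doses. Not reached: highest tested concentration assigned. At the GI50, growth is halved.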 The source made the active and inactive calls. Cut-off read from the data, not from the text of the source: active = GI50 up to about 1.1 µM and inactive = higher.
# Experiments:
# Assay in all cases: NCI tumour cell line growth inhibition, 48 h
# ACHN = system: ACHN
# OVCAR-5 = system: OVCAR-5
# IGROV-1 = system: IGROV-1
# HCT-15 = system: HCT-15
# SK-MEL-2 = system: SK-MEL-2
# DMS-114 = system: DMS-114
# XF498 = system: XF498
# SNB-19 = system: SNB-19
# HL-60 = system: HL-60
# LOX IMVI = system: LOX IMVI
# UACC-62 = system: UACC-62
# SF-268 = system: SF-268
# DMS-273 = system: DMS-273
# SF-539 = system: SF-539
# CAKI-1 = system: CAKI-1
# KM12 = system: KM12
# HOP-62 = system: HOP-62
# M14 = system: M14
# SF-295 = system: SF-295
# NCI-H23 = system: NCI-H23
# SN12C = system: SN12C
# M19-MEL = system: M19-MEL
# RXF 393 = system: RXF 393
# HOP-92 = system: HOP-92
# A549 = system: A549
# OVCAR-8 = system: OVCAR-8
# SK-MEL-5 = system: SK-MEL-5
# K562 = system: K562
# SW-620 = system: SW-620
# OVCAR-3 = system: OVCAR-3
# SR = system: SR
# 786-0 = system: 786-0
# RPMI-8226 = system: RPMI-8226
# EKVX = system: EKVX
# NCI-H226 = system: NCI-H226
# UO-31 = system: UO-31
# SK-OV-3 = system: SK-OV-3
# KM-20L2 = system: KM-20L2
# SK-MEL-28 = system: SK-MEL-28
# U-251 = system: U-251
# OVCAR-4 = system: OVCAR-4
# NCI-H522 = system: NCI-H522
# CCRF-CEM = system: CCRF-CEM
# HCC 2998 = system: HCC 2998
# HT-29 = system: HT-29
# NCI-H460 = system: NCI-H460
# UACC-257 = system: UACC-257
# LXFL 529 = system: LXFL 529
# SNB-75 = system: SNB-75
# Malme-3M = system: Malme-3M
# COLO 205 = system: COLO 205
# DLD-1 = system: DLD-1
# TK-10 = system: TK-10
# SNB-78 = system: SNB-78
# NCI/ADR-RES = system: NCI/ADR-RES
# HCT-116 = system: HCT-116
# MOLT-4 = system: MOLT-4
# MCF7 = system: MCF7
# A498 = system: A498
compound,measurement,setting,value
CC(C)(C)[C@H]1CO[C@]2(c3ccccc3)[C@@H]3C[C@@H]3C(=O)N12,GI50,ACHN,> 100 µM (inactive)
same,GI50,OVCAR-5,> 100 µM (inactive)
same,GI50,IGROV-1,> 100 µM (inactive)
same,GI50,HCT-15,> 100 µM
same,GI50,SK-MEL-2,> 100 µM (inactive)
same,GI50,DMS-114,> 100 µM (inactive)
same,GI50,XF498,> 100 µM (inactive)
same,GI50,SNB-19,> 100 µM (inactive)
same,GI50,HL-60,> 100 µM (inactive)
same,GI50,LOX IMVI,> 100 µM (inactive)
same,GI50,UACC-62,> 100 µM (inactive)
same,GI50,SF-268,> 100 µM (inactive)
same,GI50,DMS-273,> 100 µM (inactive)
same,GI50,SF-539,> 100 µM (inactive)
same,GI50,CAKI-1,> 100 µM (inactive)
same,GI50,KM12,> 100 µM (inactive)
same,GI50,HOP-62,> 100 µM (inactive)
same,GI50,M14,> 100 µM (inactive)
same,GI50,SF-295,> 100 µM (inactive)
same,GI50,NCI-H23,> 100 µM (inactive)
same,GI50,SN12C,> 100 µM (inactive)
same,GI50,M19-MEL,> 100 µM (inactive)
same,GI50,RXF 393,> 100 µM (inactive)
same,GI50,HOP-92,> 100 µM (inactive)
same,GI50,A549,> 100 µM (inactive)
same,GI50,OVCAR-8,> 100 µM (inactive)
same,GI50,SK-MEL-5,> 100 µM (inactive)
same,GI50,K562,> 10 µM (inactive)
same,GI50,SW-620,> 100 µM (inactive)
same,GI50,OVCAR-3,> 100 µM (inactive)
same,GI50,SR,> 100 µM (inactive)
same,GI50,786-0,> 100 µM (inactive)
same,GI50,RPMI-8226,> 100 µM (inactive)
same,GI50,EKVX,> 100 µM (inactive)
same,GI50,NCI-H226,> 100 µM (inactive)
same,GI50,UO-31,> 100 µM (inactive)
same,GI50,SK-OV-3,> 100 µM (inactive)
same,GI50,KM-20L2,> 100 µM (inactive)
same,GI50,SK-MEL-28,> 100 µM (inactive)
same,GI50,U-251,> 100 µM (inactive)
same,GI50,OVCAR-4,> 100 µM (inactive)
same,GI50,NCI-H522,> 100 µM (inactive)
same,GI50,CCRF-CEM,> 10 µM (inactive)
same,GI50,HCC 2998,> 100 µM (inactive)
same,GI50,HT-29,> 100 µM (inactive)
same,GI50,NCI-H460,> 100 µM (inactive)
same,GI50,UACC-257,> 100 µM (inactive)
same,GI50,LXFL 529,> 100 µM (inactive)
same,GI50,SNB-75,> 100 µM (inactive)
same,GI50,Malme-3M,> 100 µM (inactive)
same,GI50,COLO 205,> 100 µM (inactive)
same,GI50,DLD-1,> 100 µM (inactive)
same,GI50,TK-10,> 100 µM (inactive)
CCOCC(=O)N(C)c1cccc2c3c(n(C)c12)CCCCC3,GI50,OVCAR-5,> 100 µM (inactive)
same,GI50,IGROV-1,> 100 µM (inactive)
same,GI50,HCT-15,> 100 µM
same,GI50,SK-MEL-2,> 100 µM (inactive)
same,GI50,DMS-114,> 100 µM (inactive)
same,GI50,XF498,> 93.8 µM (inactive)
same,GI50,SNB-19,> 23.8 µM (inactive)
same,GI50,HL-60,> 100 µM (inactive)
same,GI50,LOX IMVI,> 100 µM (inactive)
same,GI50,UACC-62,> 100 µM (inactive)
same,GI50,SF-268,> 100 µM (inactive)
same,GI50,DMS-273,> 31.6 µM (inactive)
same,GI50,SF-539,> 100 µM (inactive)
same,GI50,CAKI-1,0.798 µM (active)
same,GI50,KM12,> 100 µM (inactive)
same,GI50,HOP-62,> 100 µM (inactive)
same,GI50,SF-295,> 100 µM (inactive)
same,GI50,NCI-H23,> 100 µM (inactive)
same,GI50,SN12C,> 100 µM (inactive)
same,GI50,M19-MEL,> 100 µM (inactive)
same,GI50,RXF 393,> 89.7 µM (inactive)
same,GI50,HOP-92,> 94.8 µM (inactive)
same,GI50,A549,> 100 µM (inactive)
same,GI50,SNB-78,> 100 µM (inactive)
same,GI50,OVCAR-8,> 100 µM (inactive)
same,GI50,SK-MEL-5,> 100 µM (inactive)
same,GI50,K562,> 62.4 µM (inactive)
same,GI50,SW-620,> 100 µM (inactive)
same,GI50,OVCAR-3,> 100 µM (inactive)
same,GI50,NCI/ADR-RES,> 100 µM (inactive)
same,GI50,HCT-116,> 100 µM (inactive)
same,GI50,EKVX,> 100 µM (inactive)
same,GI50,NCI-H226,> 100 µM (inactive)
same,GI50,SK-OV-3,> 100 µM (inactive)
same,GI50,KM-20L2,> 100 µM (inactive)
same,GI50,SK-MEL-28,> 100 µM (inactive)
same,GI50,U-251,> 100 µM (inactive)
same,GI50,OVCAR-4,> 100 µM (inactive)
same,GI50,NCI-H522,> 100 µM (inactive)
same,GI50,CCRF-CEM,> 58.9 µM (inactive)
same,GI50,MOLT-4,> 61.5 µM (inactive)
same,GI50,MCF7,> 100 µM (inactive)
same,GI50,A498,> 100 µM (inactive)
same,GI50,HCC 2998,> 100 µM (inactive)
same,GI50,HT-29,> 100 µM (inactive)
same,GI50,NCI-H460,> 100 µM (inactive)
same,GI50,UACC-257,1 µM (active)
same,GI50,SNB-75,> 46.1 µM (inactive)
same,GI50,Malme-3M,> 100 µM (inactive)
same,GI50,COLO 205,> 100 µM (inactive)
same,GI50,DLD-1,> 100 µM (inactive)
